According to PubChem BioAssay AID687022 (Broad Institute, 2013):
Activity calls are given as the source filed them.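 Rule for the calls: active = Fitted curve of melting temperature shift crosses the 1.0 threshold at or below the sample's highest valid tested concentration; inconclusive = Flat fit with activity 30 to 70, or invalid fit; inactive = Opposite direction, flat within 30, or no crossing.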

Biological target: Fibroblast growth factor 22 (Homo sapiens) (UniProt Q9HCT0)
Assay: binders of human FGF22 protein, dose response, FGF22 synaptogenesis inhibitor project, biophysical, thermal shift, cherry-pick (AID 687022)
Conditions: recombinant FGF22 thermal shift, SYPRO orange melting

Fibroblast growth factor 22 (Homo sapiens), sequence (Q9HCT0 whole entry, looked up): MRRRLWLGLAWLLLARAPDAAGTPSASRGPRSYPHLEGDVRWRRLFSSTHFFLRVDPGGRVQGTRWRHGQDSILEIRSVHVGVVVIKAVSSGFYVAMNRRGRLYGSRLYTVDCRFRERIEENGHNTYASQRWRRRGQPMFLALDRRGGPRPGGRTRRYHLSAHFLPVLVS

Row | SMILES | AbsAC1 (concentration giving Tm-shift threshold 1.0)
1 | COc1cc(NC(=O)C2CCC(CNS(=O)(=O)c3csc(C(N)=O)c3)CC2)cc(OC)c1 (configuration not stated) | 5.8 µM
2 | Cc1nc2ccc(NC(=O)c3ccc(C)c(S(=O)(=O)N4CCOCC4)c3)cc2s1 | 25.9 µM
3 | COC(=O)CN1C(=S)N(c2ccc(Cl)cc2)C(=O)C1CC(=O)Nc1ccc(F)cc1 (configuration not stated) | 6.03 µM
4 | O=C(CC1SC(=O)NC1=O)Nc1ccc(Cl)cc1 (configuration not stated) | 3.11 µM
5 | Cc1cc(C)cc(NC(=O)CN2C(=O)NC(Cc3c[nH]c4ccccc34)C2=O)c1 (configuration not stated) | 13 µM
6 | O=C(O)c1ccccc1Nc1ccc([N+](=O)[O-])cc1 | 16.2 µM
7 | C[C@H]1CN([C@@H](C)CO)S(=O)(=O)c2ccc(-c3ccncc3)cc2O[C@H]1CN(C)C(=O)Nc1ccc(C(F)(F)F)cc1 | 11.8 µM
8 | COc1ccc(C(=O)Nc2nc(CC(=O)NCCc3ccccc3)cs2)cc1 | 11.3 µM
9 | COc1cc(NC(=O)c2csc(N)n2)cc(C(=O)Nc2cccc(C(F)(F)F)c2)c1 | 10.3 µM
10 | COc1ccc(Nc2nc3ccc(OC)cc3s2)cc1 | 2.95 µM
11 | CSc1ccc(/C=N/NC(=O)c2ccc3nc[nH]c3c2)cc1 | 1.58 µM
12 | O=C(N/N=C/c1c[nH]c2ccccc12)c1cccc(Cl)c1 | 2.15 µM
13 | C/C=C/c1ccc2c(c1)O[C@@H](CN(C)C(=O)Nc1cccc(F)c1)[C@@H](C)CN([C@@H](C)CO)S2(=O)=O | 7.47 µM
14 | Cc1ccc2nc(-c3ccc(NC(=O)COCC(=O)O)cc3)sc2c1 | 3.64 µM
15 | CN1C(=O)c2cc(NC(=O)c3cccc(F)c3)ccc2OC[C@H]2O[C@@H](CC(=O)NCC3CCCCC3)CC[C@H]21 | 22.3 µM
16 | Cc1ccc(NC(=O)c2ccc(OCc3c(C)noc3C)cc2)c(C)c1 | 2.58 µM
17 | Cc1noc(NS(=O)(=O)c2ccc(NC(=O)c3cccc(S(=O)(=O)N(C)c4ccccc4)c3)cc2)c1C | 4.7 µM
18 | COc1ccccc1NC(=O)c1ccc(NC(=O)c2ccc(=O)[nH]c2)cc1 | 4.02 µM
19 | CCN1C(=O)C(CC(=O)Nc2ccc(OC)cc2)N(CCc2ccc(OC)cc2)C1=S (configuration not stated) | 6.95 µM
20 | Cc1[nH]c2ccccc2c1N=Nc1cc(C(=O)O)cc(C(=O)O)c1 | 19.9 µM
21 | CO[C@@H](CN(C)S(=O)(=O)c1ccc(Cl)cc1)[C@@H](C)CN([C@H](C)CO)S(=O)(=O)c1cccc(Cl)c1 | 10.7 µM

Row | SMILES | AbsAC1 (concentration giving Tm-shift threshold 1.0)
22 | O=C(CCc1c[nH]c2ccccc12)Nc1ccc(Oc2cccnc2)cc1 | 7.99 µM
23 | O=C(N/N=C/c1c[nH]c2ccccc12)c1cc2ccccc2o1 | 2.71 µM
24 | O=Cc1cc(OCc2ccccc2)ccc1[B-](F)(F)F | 4.64 µM
25 | O=C(Cc1n[nH]c(=O)[nH]c1=O)N/N=C/c1c(O)ccc2ccccc12 | 9.89 µM
26 | C[C@@H]1CN([C@@H](C)CO)S(=O)(=O)c2ccc(-c3ccncc3)cc2O[C@@H]1CN(C)C(=O)Nc1ccc(C(F)(F)F)cc1 | 1.96 µM
27 | Cc1ccc(NC(=O)O/N=C/c2cccc([N+](=O)[O-])c2)cc1 | 17.8 µM
28 | COc1ccc2c(CC(=O)NNC(=O)c3ccc(O)cc3)coc2c1 | 3.22 µM
29 | O=[N+]([O-])c1cccc(S(=O)(=O)Nc2ccc(-c3ccc(N4CCCC4)nn3)cc2)c1 | 19.1 µM
30 | O=C(CCNC(=O)c1ccccc1Cl)Nc1nc2ccc(F)cc2s1 | 9.92 µM
31 | Cc1[nH]c2ccccc2c1C(=O)NS(=O)(=O)Nc1ccc(Cl)cc1 | 3.06 µM
32 | CC(=O)Nc1ccc(S(=O)(=O)Nc2nc3ccccc3nc2Nc2cccc(S(N)(=O)=O)c2)cc1 | 12.7 µM
33 | CC1(C(=O)NS(=O)(=O)c2ccc(Cl)cc2)CCN1C(=O)Cc1ccc(Cl)cc1Cl (configuration not stated) | > 10 µM (inactive)
34 | O=C(N/N=C/c1ccncc1)c1cccc(NC(=O)c2ccc(Cl)cc2)c1 | 9.27 µM
35 | Oc1ccc(/C=N/N=C/c2ccc(O)c(O)c2)cc1O | 2.05 µM
36 | O=C(Nc1nc(-c2ccccn2)cs1)c1cccc(S(=O)(=O)N2CCOCC2)c1 | 9.23 µM
37 | O=C(NCC1CC1)c1onc(CSc2ccc(F)cc2)c1C(=O)NCC1CC1 | 2.58 µM
38 | COc1c(O)ccc(/C=C(\C#N)c2nc3ccccc3[nH]2)c1[N+](=O)[O-] | 7.61 µM
39 | CCOC(=O)C(c1c(O)c2ccccc2oc1=O)c1c(O)c2ccccc2oc1=O | > 5 µM (inactive)
40 | CCCOC(=O)c1ccc(Oc2cn[nH]c2-c2ccc(O)cc2O)cc1 | 18.6 µM
41 | COc1cccc(C#Cc2ccc([C@H]3[C@H]4CN(S(=O)(=O)c5ccccc5C)CC(=O)N4[C@H]3CO)cc2)c1 | 16.6 µM
42 | O=C(Nc1ccc(F)cc1)N[C@H]1CC[C@@H](CCn2cc(-c3ccccc3F)nn2)O[C@H]1CO | 10.5 µM

Row | SMILES | AbsAC1 (concentration giving Tm-shift threshold 1.0)
43 | COC(=O)CN1C(=S)N(c2ccc(F)cc2)C(=O)C1CC(=O)Nc1ccccc1 (configuration not stated) | 16.1 µM
44 | CCCC(=O)c1ccc(OCc2cn(CC(=O)c3ccc(O)cc3)nn2)cc1 | 8.45 µM
45 | O=S(=O)(Nc1cc(Cl)ccc1-n1cncn1)c1ccc(F)cc1 | 15.2 µM
46 | O=C(Nc1nnc(C(F)(F)F)s1)c1ccc(Br)s1 | 15.6 µM
47 | COc1cccc(NC(=O)N(C)C[C@H]2Oc3cc(-c4ccccc4F)ccc3S(=O)(=O)N([C@H](C)CO)C[C@@H]2C)c1 | 8.76 µM
48 | CCc1nnc(NS(=O)(=O)c2ccc(Nc3ccc([N+](=O)[O-])c4nonc34)cc2)s1 | > 5 µM (inactive)
49 | C[C@@H]1CN([C@@H](C)CO)C(=O)c2cc(NS(=O)(=O)c3ccc(Cl)cc3)ccc2O[C@@H]1CN(C)S(=O)(=O)c1ccc(F)cc1 | 21.9 µM
50 | CCN(CC)S(=O)(=O)c1ccc(N/N=C(\C)c2ccc(OC)cc2O)nc1 | 14 µM
51 | CC(C)CCNC(=O)c1onc(CSc2ccncc2)c1C(=O)NCCC(C)C | 3.89 µM
52 | Cc1nc2ccccc2c2oc(C(=O)NCc3ccc4c(c3)OCO4)cc12 | 2.57 µM
53 | COc1ccc(CN2C(=O)N(c3ccc(OC)cc3)C(=O)C2CC(=O)Nc2ccccc2)cc1 (configuration not stated) | 6.06 µM
54 | O=C(O)/C=C/c1cccc(NC(=O)Nc2ccc([N+](=O)[O-])cc2)c1 | 4.49 µM
55 | COc1ccc(OC)c(Nc2ccc(Nc3cc(OC)ccc3OC)nn2)c1 | 8.4 µM
56 | O=C(O)C[C@@H]1C[C@H]2c3cc(NC(=O)Nc4ccc(C(F)(F)F)cc4)ccc3O[C@H]2[C@@H](CO)O1 | > 10 µM (inactive)
57 | Oc1cc(O)cc(-c2cc3ccc(O)cc3o2)c1 | 14.9 µM
58 | CCOC(=O)N1CCN(C(=O)CCCCCn2c(=S)[nH]c3ccsc3c2=O)CC1 | 13.8 µM
59 | C[C@@H]1CN([C@@H](C)CO)S(=O)(=O)c2ccc(-c3cccc(C#N)c3)cc2O[C@@H]1CN(C)C(=O)Nc1cc(F)ccc1F | > 38 µM (inactive)
60 | COc1ccc(-c2cn(CC[C@@H]3CC[C@@H](NC(=O)Nc4ccc(F)cc4)[C@H](CO)O3)nn2)cc1 | 12.8 µM
61 | COc1ccc(N2C(=O)C(CC(=O)Nc3ccccc3)N(Cc3ccccn3)C2=S)cc1 (configuration not stated) | 9.43 µM
62 | CC(C)Oc1ccc(F)cc1-c1cc(C(=O)NCc2cccs2)[nH]n1 | 8.55 µM
63 | O=C(Nc1ccccc1)O/N=C/c1ccc(F)cc1 | 20.3 µM

Row | SMILES | AbsAC1 (concentration giving Tm-shift threshold 1.0)
64 | O=C(N/N=C/c1c(O)ccc2ccccc12)c1[nH]ncc1Br | 23.7 µM
65 | O=C(NN1C(=O)CSC1=S)C(=O)NN1C(=O)CSC1=S | 5.24 µM
66 | O=C(NCC1CCOCC1)c1ccc2nc(Cc3cccc(Cl)c3)oc2c1 | 6.43 µM
67 | Cc1cc(C)n(-c2ccc(C(=O)Nc3ccc(S(=O)(=O)N(C)C)cc3)cc2)n1 | 9.32 µM
68 | NS(=O)(=O)c1cccc(NC(=O)COC(=O)c2cc([N+](=O)[O-])ccc2N2CCCC2)c1 | 5.86 µM
69 | Nc1nonc1-n1nnc(C(=O)N/N=C/c2cccnc2)c1CSc1ccc(Cl)cc1 | 3.46 µM
70 | CC(C)n1c(=O)c2ccccc2n1Cc1cn(-c2ccc(Cl)cc2)nn1 | 3.24 µM
71 | C[C@H](CO)N1C[C@H](C)[C@H](CN(C)C(=O)Nc2ccc3c(c2)OCO3)Oc2cc(C3=CCCCC3)ccc2S1(=O)=O | 20.3 µM
72 | COc1cc(OC)cc(C(=O)Nc2ccc(S(=O)(=O)Nc3nc(C)cc(C)n3)cc2)c1 | 15.5 µM
73 | O=C(C[C@H]1CC[C@H]2[C@@H](COC[C@H](O)CN2Cc2ccccc2)O1)NCCc1ccccc1 | > 38 µM (inactive)
74 | Cc1ccc(Cl)cc1N1CCN(C(=O)Cc2c(C(=O)O)[nH]c3ccc(Cl)cc23)CC1 | 4.47 µM
75 | COc1ccccc1NS(=O)(=O)c1cc(C(=O)Nc2ccc(S(=O)(=O)Nc3onc(C)c3C)cc2)ccc1C | 4.31 µM
76 | Nc1nc(O)c(Sc2ccccc2[N+](=O)[O-])c(=O)[nH]1 | 2.7 µM
77 | O=C(CCc1c[nH]c2ccccc12)Nc1ccc(Nc2cccnc2)cc1 | 4.36 µM
78 | Clc1ccc(Nc2ccc(NCc3ccccc3)nn2)cc1 | 2.73 µM
79 | C=C1[C@@H](O)[C@H](Cc2ccccc2)N(Cc2ccccc2Br)S1(=O)=O | 15.5 µM
80 | COc1cc(/C=C2/S/C(=N/S(=O)(=O)Cc3ccccc3)NC2=O)c([N+](=O)[O-])cc1OC | 3.72 µM
81 | O=C(N/N=C/c1c[nH]c2ccc(Br)cc12)c1ccc2c(c1)OCO2 | 14.3 µM
82 | COc1ccccc1NC(=O)N[C@@H]1CC[C@@H](CCn2cc(-c3ccccc3OC)nn2)O[C@@H]1CO | 4.76 µM
